From patent publication US20030176483A1, “Topical synergistic microbicide” (priority 2002, published 2003)

Key:
Vero cells [1] = test: Cytotoxicity, neutral red uptake assay; format: cell-based, African green monkey; details: after 2 days' incubation, data not shown
Description: Culture medium was removed from confluent Vero cells in 24-well plates. The cells were then washed once with PBS. […] Cells were incubated at 37° C. for 1 h, 6 h, 2 and 3 days. At each time point, the medium was removed and cells washed with PBS. 500 μl of 0.01% neutral red (in PBS) was added to each well, and the samples were incubated at 37° C. for 30 min. The dye was then removed and the cells washed×2 with 1 ml PBS per well. The dye was extracted by addition of 500 μl of 50% ethanol/1% glacial acetic acid in PBS to each well and incubated at room temperature for 15 min with gentle shaking at 120-150 rpm. 200 μl extracted dye from each well was put into 96-well plate and the absorbance at 550 nm was read on an ELISA reader.

HSV-1 (strain F) = test: Inactivation of HSV-1 by pre-mixing with drug, plaque reduction assay; format: cell-based, herpes simplex virus; details: concentration 0.005%, pre-mixing for 1 h
Description: (§1) HSV strains G (HSV-2) and F (HSV-1) were used in the experiments. A HSV susceptible cell line, Vero cells (African green monkey kidney cell), was used in the virus yield reduction assays. The culture medium for Vero cells was 5% minimum essential medium (MEM; GIBCO/BRL) supplemented with 5% fetal bovine serum, 100 U/ml penicillin and 100 μg/ml streptomycin).
(§2) Confluent cells were washed with PBS and subsequently infected with HSV for 1 h at 37° C. After viral inoculum was removed, the infected cells were washed with PBS and overlaid with 0.5% methylcellulose in culture medium. Cells were incubated at 37° C. for 2 days for HSV-2 infection and 3 days for HSV-1. When plaque size was adequate, cells were fixed with 10% formalin for […]. Monolayers were subsequently stained with 0.5% crystal violet for 10 min, and dye was removed by washing with tap water.
(§3) All data were generated from duplicate or triplicate experiments. Effects of compounds at varying concentrations were expressed as % of control (the mean plaque counts in drug treated wells/the mean plaque counts in control wells).
(§4) HSV G and F strains were diluted to 200 pfu/ml with 5% MEM, respectively. […] Equal volumes of diluted virus and drugs were mixed and incubated at 37° C. water-bath for 1 h. One ml of the mixture was then used to infect confluent Vero cells in 6-well plates at 37° C. for 1 h. […]

[2] = tested on: HSV-2 thymidine kinase mutant Delta 333; test: Inactivation of drug-resistant HSV-2 TK mutant, plaque reduction assay; format: cell-based, herpes simplex virus; details: 37° C. for 1 h, concentration not given
HSV-2 (strain G) = test: Inactivation of HSV-2 by pre-mixing with drug, plaque reduction assay; format: cell-based, herpes simplex virus; details: concentration 0.005%, pre-mixing for 1 h
Description: as §1, §2, §3, §4

Vero cells [3] = test: Cell death seen in the HSV inactivation plaque assays; format: cell-based, African green monkey; details: concentration 0.005%
Description: HSV G and F strains were diluted to 200 pfu/ml with 5% MEM, respectively. […] Equal volumes of diluted virus and drugs were mixed and incubated at 37° C. water-bath for 1 h. One ml of the mixture was then used to infect confluent Vero cells in 6-well plates at 37° C. for 1 h. After infection, viral inoculum was removed and the cells washed with PBS. The cells were subsequently overlaid with 1.5 ml of 0.5% methylcellullose (diluted from 1% stock with 2×culture medium) for plaque assay.

## CCCCCCCCCCCCOS(=O)(=O)[O-].[Na+] [SDS]
Vero cells [1]
  CC50 (cytotoxic concentration giving 50% of cell death): approximately 0.005%
HSV-1 (strain F)
  inactivation of HSV-1: effective
[2]
  inactivation of delta 333: capable of inactivating
HSV-2 (strain G)
  inactivation of HSV-2: effective
Vero cells [3]
  cell death: 50%
